Assay results from ChEMBL document CHEMBL1144848, “Interaction of a cyclostreptin analogue with the microtubule taxoid site: the covalent reaction rapidly follows binding” (J Nat Prod, 2008).
Calls of active or inactive are those of the source. The calls are words filed in the database; no cut-off is given here.

Experiments:
Bos taurus [1] = species on record: Bos taurus; experiment: Binding affinity to bovine tubulin assessed as drug level in bound to per mole of colchicine site at <=0 degC after 60 mins by total binding assay
Bos taurus [2] = species on record: Bos taurus; experiment: Binding affinity to bovine tubulin assessed as drug level in bound to per mole of colchicine site at <=20 degC after 1 min by total binding assay
Bos taurus [3] = species on record: Bos taurus; experiment: Binding affinity to bovine tubulin assessed as drug level in bound to per mole of colchicine site at <=20 degC after 1 min by covalent binding assay
Bos taurus [4] = species on record: Bos taurus; experiment: Binding affinity to bovine tubulin assessed as drug level in bound to per mole of colchicine site at <=20 degC after 60 mins by total binding assay
Bos taurus [5] = species on record: Bos taurus; experiment: Binding affinity to bovine tubulin assessed as drug level in bound to per mole of colchicine site at <=20 degC after 60 mins by covalent binding assay
Bos taurus [6] = species on record: Bos taurus; experiment: Binding affinity to bovine tubulin at 5 uM in <=0 degC after 60 mins; conditions: tested as the 14C-labelled form
Bos taurus [7] = species on record: Bos taurus; experiment: Binding affinity to bovine tubulin at 5 uM in <=20 degC after 60 mins; conditions: tested as the 14C-labelled form
Bos taurus [8] = species on record: Bos taurus; experiment: Binding affinity to bovine microtubules assessed as drug level in bound to per mole taxoid site at <=0 degC after 1 min by total binding assay
Bos taurus [9] = species on record: Bos taurus; experiment: Binding affinity to bovine microtubules assessed as drug level in bound to per mole taxoid site at <=0 degC after 1 min by covalent binding assay
Bos taurus [10] = species on record: Bos taurus; experiment: Binding affinity to bovine microtubules assessed as drug level in bound to per mole taxoid site at <=0 degC after 60 mins by total binding assay
Bos taurus [11] = species on record: Bos taurus; experiment: Binding affinity to bovine microtubules assessed as drug level in bound to per mole taxoid site at <=0 degC after 60 mins by covalent binding assay
Bos taurus [12] = species on record: Bos taurus; experiment: Binding affinity to bovine microtubules assessed as drug level in bound to taxoid site at <=20 degC after 1 min by total binding assay
Bos taurus [13] = species on record: Bos taurus; experiment: Binding affinity to bovine microtubules assessed as drug level in bound to taxoid site at <=0 degC after 1 min by covalent binding assay
Bos taurus [14] = species on record: Bos taurus; experiment: Binding affinity to bovine microtubules assessed as drug level in bound to taxoid site at <=20 degC after 60 mins by total binding assay
Bos taurus [15] = species on record: Bos taurus; experiment: Binding affinity to bovine microtubules assessed as drug level in bound to taxoid site at <=0 degC after 60 mins by covalent binding assay
Bos taurus [16] = species on record: Bos taurus; experiment: Binding affinity to bovine tubulin assessed as drug level in bound to per mole of colchicine site at <=0 degC after 1 min by total binding assay
Bos taurus [17] = species on record: Bos taurus; experiment: Enhancement of bovine tubulin stability at <=0 degC

Compound	stoichiometry (Bos taurus [1]) [mol/mol]	Activity (Bos taurus [2]) [mol/mol]	stoichiometry (Bos taurus [3]) [mol/mol]	stoichiometry (Bos taurus [4]) [mol/mol]	Activity (Bos taurus [5]) [mol/mol]	Activity (Bos taurus [6])	Activity (Bos taurus [7])	stoichiometry (Bos taurus [8]) [mol/mol]	Activity (Bos taurus [9]) [mol/mol]	Activity (Bos taurus [10]) [mol/mol]	Activity (Bos taurus [11]) [mol/mol]	Activity (Bos taurus [12]) [mol/mol]	Activity (Bos taurus [13]) [mol/mol]	Activity (Bos taurus [14]) [mol/mol]	Activity (Bos taurus [15]) [mol/mol]	Activity (Bos taurus [16]) [mol/mol]	Activity (Bos taurus [17])
CC(=O)O[C@H]1[C@H](C)[C@@H](O)[C@H]2[C@H]1C=C(C)[C@@H]1C[C@@H]3[C@@H](C4=C5O[C@]3(C)CC[C@H](OC4=O)[C@H]5C)[C@H]21	0.06	0.6	0.7	0.81	0.88	inactive	inactive	0.14	0.13	0.38	0.35	0.53	0.46	0.93	0.81	0.01	–
CC(=O)O[C@H]1C(=O)[C@@]2(C)[C@H]([C@H](OC(=O)c3ccccc3)[C@]3(O)C[C@H](OC(=O)[C@H](O)[C@@H](NC(=O)c4ccccc4)c4ccccc4)C(C)=C1C3(C)C)[C@]1(OC(C)=O)CO[C@@H]1C[C@@H]2O	–	–	–	–	–	–	–	–	–	–	–	–	–	–	–	–	Active
